“And” between values parts separate entries of the source, which are not always exact repeats. Identical values can stand only once.
Tested on: mice
Experiment: Warm renal ischemia/reperfusion repeat study Step 2, 25 minutes ischemia (Example 3)
Assay type: in vivo
Settings: for MDA level as an index of lipid peroxidation / uremia (urea) / MPO activity as an index of neutrophil accumulation / creatininemia (creatinine): individual data and Mean ± SEM, n=6
Description: Nine Experimental groups were used in Step 2: • 1) Sham-operated mice sacrificed 1 day after surgery, n=6, • 2) PBS-vehicle-treated mice 15 minutes before ischemia/1 day reperfusion, n=6, • 3) Isotype control antibody 10 mg/kg-treated mice 15 minutes before 25 minutes ischemia/1 day reperfusion, n=6 (The isotype control antibody is mouse IgG1 isotype control purchased from RnD systems (catalogue number MAB002), this isotype control antibody having binding specificity for Keyhole Limpet Hemocyanin (KLH) antigen), • 4) OPN301 anti-TLR2 monoclonal antibody 10 mg/kg-treated mice 15 minutes before 25 minutes ischemia/1 day reperfusion, n=6, • 5) Pargyline 6 mg/kg-treated mice 15 minutes before 25 minutes ischemia/1 day reperfusion, n=6, • 6) PBS-vehicle-treated mice 15 minutes before 25 min ischemia/5 day reperfusion, n=6, • 7) Isotype control antibody (RnD Systems catalogue Number MAB002) 10 mg/kg-treated mice 15 minutes before 25 minutes ischemia/5 day reperfusion, n=6, • 8) OPN301 anti-TLR2 monoclonal antibody 10 mg/kg-treated mice 15 minutes before 25 minutes ischemia/5 day reperfusion, n=6, • 9) Pargyline 6 mg/kg-treated mice 15 minutes before 25 minutes ischemia/5 day reperfusion, n=6, Experimental Warm Renal Ischemia/Reperfusion (Step 1 and 2)
Briefly, mice were anesthetized with 10 μl/g of a mix of 2.5 ml ketamine (Ketalar 50 mg/mL, Centravet; Lapalisse, France), 0.5 ml xylazine (Rompun 2.5%, Centravet; Lapalisse, France), and 7 mL NaCl 0.9% (Centravet; Lapalisse, France). During surgery, animals were set on a 35° C. hotplate.
After a 2 millimetre incision was made at the right jugular level, jugular vein was exposed for a 1 minute-intravenous injection (insulin syringe; VWR, Fontenay-sous-Bois, France) of 70 μl of the considered treatment then closed after haemostasis (5/0 Ethicrin thread, Ethicon; Auneau, France). In Step 1, no jugular injection was performed.
Three centimetre midline incisions were made to abdominal cutaneous followed by muscular incisions were performed; renal pedicles were exposed and clamped for 25 minutes using microaneurysm clamps (AREX; Palaiseau, France). At the time of clamp installation and removal, kidneys were inspected for blood flow arrest and restoration, respectively. During renal ischemia duration, the abdomen was wrapped up to avoid loss of heat and be kept in relative intra-abdominal pressure. At the time of abdomen closing in 2 layers (5/0 Ethicrin thread, Ethicon; Auneau, France), mice were supplemented with 1 mL sterile NaCl (sodium chloride) 0.9% to maintain fluid balance and volume status. Finally, all mice received an intramuscular injection of 10 mg/kg profenid 50 mg/mL (Centravet; Lapalisse, France) for analgesic purpose then allowed to recover from surgery for 12 hours at 32° C. in a ventilated stove. Food and water were given ad libitum. Sham-operated mice underwent the same procedure without clamping.
At the end of the protocol, mice were sacrificed by lethal injection of pentobarbital (100 μL/10 g, Ceva Sante Animale; Libourne, France) 1 and 5 days after surgery.
Experimental methodology such as urea, creatinine, MPO and MDA as described in Example 2.
The results were given as mean values±standard error of the mean (SEM). A one-way ANOVA was used for comparison of within-group difference followed by a Newman-Keuls test for comparison of all pairs of columns (GraphPad Prism, San Diego, USA). A p<0.05 was accepted for statistical significance.

For C#CCN(C)Cc1ccccc1 [Pargyline], the “effect on renal function impairment induced by ischemic injury, in words” value (1 day after 25 minute ischemia) was “without effects”, the “MDA level as an index of lipid peroxidation” value (shortened to “MDA level as an index”) (Day 1 after 25 minute ischemia, PBS-vehicle 0.153 ± 0.014) was 0.285 nmol/mg proteins and 0.163 nmol/mg proteins and 0.212 nmol/mg proteins and 0.242 nmol/mg proteins and 0.249 nmol/mg proteins and 0.202 nmol/mg proteins and the “MDA level as an index” value (Day 1 after 25 minute ischemia, PBS-vehicle 0.153 ± 0.014, mean) was 0.225 ± 0.017 nmol/mg proteins. For the same compound, the “uremia (urea)” value (Day 1 after 25 minute ischemia, PBS-vehicle 31.05 ± 5.70) was 47.99 mmol/L and 48.92 mmol/L and 40.01 mmol/L and 27.83 mmol/L and 19.35 mmol/L and 18.22 mmol/L, the “uremia (urea)” value (Day 1 after 25 minute ischemia, PBS-vehicle 31.05 ± 5.70, listed as pargyline) was 33.72 ± 5.64 mmol/L and the “uremia (urea)” value (Day 1 after 25 minute ischemia, PBS-vehicle 31.05 ± 5.70, mean) was 33.72 ± 5.64 mmol/L. For the same compound, the “MPO activity as an index of neutrophil accumulation” value (“MPO activity as an index” below) (Day 1 after 25 minute ischemia, PBS-vehicle 80.45 ± 8.66) was 57.37±5.78 U MPO/mg protein and 47.9 U MPO/mg protein and 52.7 U MPO/mg protein and 68.7 U MPO/mg protein and 80.7 U MPO/mg protein and 48.8 U MPO/mg protein and 45.4 U MPO/mg protein, the “creatininemia (creatinine)” value (Day 1 after 25 minute ischemia, PBS-vehicle 99.97 ± 25.64) was 185.9 µmol/L and 150.7 µmol/L and 134.1 µmol/L and 77.6 µmol/L and 53.3 µmol/L and 26.6 µmol/L and the “creatininemia (creatinine)” value (Day 1 after 25 minute ischemia, PBS-vehicle 99.97 ± 25.64, listed as pargyline) was 104.7 ± 25.20 µmol/L. For the same compound, the “creatininemia (creatinine)” value (Day 1 after 25 minute ischemia, PBS-vehicle 99.97 ± 25.64, mean) was 104.7 ± 25.20 µmol/L, the “MDA level as an index” value (Day 5 after 25 minute ischemia, PBS-vehicle 0.188 ± 0.019) was 0.290 nmol/mg proteins and 0.231 nmol/mg proteins and 0.218 nmol/mg proteins and 0.261 nmol/mg proteins and 0.234 nmol/mg proteins and 0.299 nmol/mg proteins and the “MDA level as an index” value (Day 5 after 25 minute ischemia, PBS-vehicle 0.188 ± 0.019, mean) was 0.255 ± 0.014 nmol/mg proteins. The “uremia (urea)” value (Day 5 after 25 minute ischemia, PBS-vehicle 8.78 ± 0.72) was 7.63 mmol/L and 9.48 mmol/L and 7.37 mmol/L and 7.53 mmol/L and 8.78 mmol/L and 7.29 mmol/L, the “uremia (urea)” value (Day 5 after 25 minute ischemia, PBS-vehicle 8.78 ± 0.72, mean) was 8.01 ± 0.37 mmol/L and the “creatininemia (creatinine)” value (Day 5 after 25 minute ischemia, PBS-vehicle 21.97 ± 1.84) was 16 μmol/L and 27.2 μmol/L and 30.7 μmol/L and 19.2 μmol/L and 22.9 μmol/L (2×). For the same compound, the “creatininemia (creatinine)” value (Day 5 after 25 minute ischemia, PBS-vehicle 21.97 ± 1.84, mean) was 23.15 ± 2.16 µmol/L, the “MPO activity as an index” value (Day 5 after 25 minute ischemia, PBS-vehicle 54.95 ± 0.62) was 44.4 U MPO/mg protein and 49.2 U MPO/mg protein and 47.6 U MPO/mg protein and 42.2 U MPO/mg protein and 46.3 U MPO/mg protein and 49.6 U MPO/mg protein and the “MPO activity as an index” value (Day 5 after 25 minute ischemia, PBS-vehicle 54.95 ± 0.62, mean) was 46.55 ± 1.17 U MPO/mg protein.
